Molecules are shown by their SMILES.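 Method: 48-hour compound exposure of cells in 96-well plates, five concentrations, linear interpolation of endpoints. GI50 marks 50% less growth. TGI is the concentration that stops growth completely.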 A value given as a limit tells only on which side of the number the result lay.

For 9 compounds, GI50 and TGI results are on record in PubChem BioAssay (NCI).

Test systems include SK-MEL-28 melanoma; UACC-62 melanoma; MOLT-4 leukemia; IGROV1 ovarian; SNB-75 CNS; U251 CNS; CAKI-1 renal; RXF 393 renal; NCI-H460 lung; OVCAR-4 ovarian.
Common to all, as to test: NCI anticancer screen, dose series, 48 h

As to `Nc1nc(Cl)nc2c1ncn2C1OC(CO)C(O)C1F` (stereo not drawn), the GI50 with SK-MEL-28 melanoma is more than 9.44 µM; in the assay on UACC-62 melanoma, 0.145 µM; with IGROV1 ovarian, more than 18 µM; in the assay with SNB-75 CNS, 0.731 µM; with U251 CNS, 0.213 µM; in the assay on CAKI-1 renal it was 0.0351 µM. The GI50 with RXF 393 renal was 12.8 µM; in the assay with NCI-H460 lung, 0.462 µM; in the assay on OVCAR-4 ovarian, more than 82.2 µM. The TGI is more than 100 µM in the assay with SK-MEL-28 melanoma; 1.7 µM in the assay with UACC-62 melanoma; more than 100 µM in the assay on MOLT-4 leukemia; more than 100 µM with IGROV1 ovarian; more than 26.1 µM in the assay with SNB-75 CNS; more than 100 µM in the assay with U251 CNS. Moreover, the TGI is 0.959 µM in the assay with CAKI-1 renal, more than 100 µM in the assay on RXF 393 renal, more than 100 µM in the assay with NCI-H460 lung and more than 100 µM in the assay with OVCAR-4 ovarian.

As for `FC(F)c1ncc(-c2ccc(C(F)(F)F)cc2)c(NC2CCCCCC2)n1`, the GI50 in the assay on SK-MEL-28 melanoma, in the assay with UACC-62 melanoma, in the assay with MOLT-4 leukemia, in the assay on IGROV1 ovarian, in the assay on SNB-75 CNS and with U251 CNS was more than 10 µM throughout. Also, the GI50 with CAKI-1 renal, in the assay on RXF 393 renal, in the assay with NCI-H460 lung and in the assay with OVCAR-4 ovarian was more than 10 µM throughout. Moreover, the TGI in the assay with SK-MEL-28 melanoma, in the assay with UACC-62 melanoma, with MOLT-4 leukemia, with IGROV1 ovarian, in the assay with SNB-75 CNS and in the assay with U251 CNS was more than 10 µM in each case. Also, the TGI in the assay on CAKI-1 renal, in the assay on RXF 393 renal, in the assay on NCI-H460 lung and in the assay on OVCAR-4 ovarian was more than 10 µM in each case.

As to `CN1CCN(Cc2ccc(NC(=O)c3[nH]ncc3Nc3ncnc4[nH]ccc34)cc2)CC1`, the GI50 in the assay on SK-MEL-28 melanoma was 0.411 µM; in the assay on UACC-62 melanoma, 0.411 µM; with MOLT-4 leukemia, 0.142 µM; in the assay with IGROV1 ovarian, 0.436 µM; with SNB-75 CNS, 0.0393 µM; in the assay with U251 CNS, 0.251 µM. Further, the GI50 in the assay with CAKI-1 renal is 1.83 µM; in the assay on RXF 393 renal it was 0.199 µM; in the assay on NCI-H460 lung, 0.328 µM; with OVCAR-4 ovarian, 0.215 µM. Besides, the TGI with SK-MEL-28 melanoma came to 4.24 µM; in the assay on UACC-62 melanoma, 1.82 µM; in the assay with MOLT-4 leukemia, 0.598 µM; in the assay with IGROV1 ovarian, 10.7 µM; in the assay with SNB-75 CNS, 0.371 µM; in the assay on U251 CNS it was 10.7 µM. For the same compound, the TGI with CAKI-1 renal worked out at 8.19 µM; with RXF 393 renal, 0.464 µM; with NCI-H460 lung, 4.67 µM; in the assay with OVCAR-4 ovarian, 0.68 µM.

Regarding `CCc1ccc2oc(=O)ccc2c1`, the TGI in the assay with SK-MEL-28 melanoma, with UACC-62 melanoma, in the assay with MOLT-4 leukemia, in the assay on IGROV1 ovarian, with SNB-75 CNS and in the assay with U251 CNS was more than 100 µM in each case. The TGI in the assay with CAKI-1 renal, in the assay on RXF 393 renal, in the assay on NCI-H460 lung and in the assay on OVCAR-4 ovarian was more than 100 µM throughout.

For `Cc1cc(=O)[nH]c(N/N=C/c2ccccc2O)n1`, the GI50 in the assay on SK-MEL-28 melanoma is 25.3 µM; in the assay with UACC-62 melanoma it was 9.92 µM; in the assay with MOLT-4 leukemia, 4.95 µM; in the assay on IGROV1 ovarian it was 3.77 µM; in the assay with SNB-75 CNS, 71.5 µM; with U251 CNS, 6.01 µM. Moreover, the GI50 was 5.19 µM with CAKI-1 renal, 12.8 µM with RXF 393 renal, 4.72 µM in the assay on NCI-H460 lung and 2.25 µM in the assay on OVCAR-4 ovarian. For the same compound, the TGI in the assay on SK-MEL-28 melanoma was more than 100 µM; in the assay on UACC-62 melanoma, 51 µM; with MOLT-4 leukemia it was more than 100 µM; with IGROV1 ovarian it was more than 100 µM; with SNB-75 CNS, more than 100 µM; in the assay on U251 CNS it was more than 100 µM. Further, the TGI with CAKI-1 renal is more than 100 µM; in the assay with RXF 393 renal it was 92.6 µM; with NCI-H460 lung, more than 100 µM; in the assay with OVCAR-4 ovarian, more than 100 µM.

For the compound `Cc1ccc(N2C(=O)/C(=C/c3ccc(N(CCC#N)CCC#N)cc3)N=C2COc2ccc(Cl)cc2Cl)cc1`, the TGI with SK-MEL-28 melanoma, in the assay with UACC-62 melanoma, in the assay with MOLT-4 leukemia, in the assay with IGROV1 ovarian, in the assay on SNB-75 CNS and in the assay with U251 CNS was more than 100 µM each time. Also, the TGI with CAKI-1 renal, in the assay with RXF 393 renal, in the assay with NCI-H460 lung and with OVCAR-4 ovarian was more than 100 µM in each case.

With `CC12CCC(=O)C(O1)C1C(=O)c3ccc4c(ccc5ccccc54)c3C(=O)C12` (stereo not drawn), the GI50 with SK-MEL-28 melanoma was 29.1 µM; in the assay on UACC-62 melanoma, 1.46 µM; in the assay on MOLT-4 leukemia, 1.31 µM; in the assay with IGROV1 ovarian it was 7.09 µM; in the assay with SNB-75 CNS it was 20.5 µM; in the assay on U251 CNS it was 18.8 µM. Besides, the GI50 in the assay on CAKI-1 renal is 1.82 µM; with NCI-H460 lung, 4.84 µM; in the assay on OVCAR-4 ovarian, 1.4 µM. Further, the TGI in the assay on SK-MEL-28 melanoma is more than 100 µM; with UACC-62 melanoma, 2.86 µM; in the assay on MOLT-4 leukemia it was 17.5 µM; with IGROV1 ovarian it was more than 100 µM; in the assay on SNB-75 CNS it was 54 µM; with U251 CNS it was 35.6 µM. Further, the TGI in the assay with CAKI-1 renal was 6.63 µM; in the assay on RXF 393 renal it was 2.03 µM; in the assay with NCI-H460 lung, 11.8 µM; in the assay on OVCAR-4 ovarian it was 3.01 µM.

Regarding `CCCC(O)c1cn(-c2cccc(S(=O)(=O)O)c2)nn1` (stereo not drawn), the TGI in the assay with SK-MEL-28 melanoma, with UACC-62 melanoma, in the assay with MOLT-4 leukemia, in the assay on IGROV1 ovarian, in the assay on SNB-75 CNS and in the assay on U251 CNS was more than 100 µM each time. Moreover, the TGI in the assay with CAKI-1 renal, with RXF 393 renal, in the assay with NCI-H460 lung and in the assay with OVCAR-4 ovarian was more than 100 µM throughout.

In the case of `COc1cc(C)cc(C(=O)/C=C/c2ccccc2)c1O`, the TGI was found to be 50.7 µM with SK-MEL-28 melanoma; 33.6 µM in the assay on UACC-62 melanoma; 69.8 µM in the assay on MOLT-4 leukemia; 30.5 µM with IGROV1 ovarian; 72.1 µM with SNB-75 CNS; 35.6 µM in the assay on U251 CNS. Also, the TGI stood at 39.1 µM in the assay on CAKI-1 renal, 35.7 µM with RXF 393 renal, 44.7 µM with NCI-H460 lung and 45.9 µM in the assay on OVCAR-4 ovarian.
